{
  "source": "patent US5976497A",
  "about": "“Dopamine D4 receptor ligands” (Resolution Pharmaceuticals, Inc., priority 1997, dated 1999)",
  "key": {"D4": {"target": "T1, D4 (Homo sapiens, UniProt P21917, DEL265-296)", "T1 construct": "expressed in transfected cells; host or cells: HEK 298 cells (so in the source); membrane preparations", "T1 sequence (P21917 with tags, fused parts or gaps DEL265-296)": "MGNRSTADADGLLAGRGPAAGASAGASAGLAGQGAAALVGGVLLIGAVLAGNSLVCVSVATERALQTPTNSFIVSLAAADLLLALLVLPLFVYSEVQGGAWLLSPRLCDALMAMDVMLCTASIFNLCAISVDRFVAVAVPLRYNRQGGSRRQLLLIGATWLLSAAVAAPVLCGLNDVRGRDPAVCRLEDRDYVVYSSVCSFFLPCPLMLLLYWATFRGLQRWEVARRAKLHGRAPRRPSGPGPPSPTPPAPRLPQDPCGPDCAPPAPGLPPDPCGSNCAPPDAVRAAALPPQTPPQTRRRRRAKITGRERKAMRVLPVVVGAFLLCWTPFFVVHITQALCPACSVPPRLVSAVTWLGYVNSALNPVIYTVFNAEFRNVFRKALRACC", "experiment": "D4 receptor-binding affinity (reduction of ^3 H-spiperone binding)", "settings": "for Ki: ^3 H-spiperone displacement, Ki by Cheng and Prusoff transformation of IC50", "description": "(§1) The potency of the test compound to reduce ^3 H-spiperone binding is directly correlated to its binding affinity for the receptor.\n(§2) The test compounds were assayed at a range of concentrations and the % inhibition of ^3 H-spiperone binding at each test concentration was measured. Specific binding in the absence of test compound is the difference of total binding minus non-specific binding and similarly specific binding (in the presence of test compound) is the difference of displacement binding minus non-specific binding.\n(§3) where [L] is the concentration of ^3 H-spiperone used in the assay and KD is the dissociation constant of ^3 H-spiperone determined independently under the same binding conditions."}, "D2": {"target": "T2, D2 (Homo sapiens, UniProt P14416)", "T2 construct": "expressed in transfected cells; host or cells: GH4C1 (rat pituitary) cells, stably transfected; membrane preparations", "T2 sequence (P14416 1-414 isoform P14416-2)": "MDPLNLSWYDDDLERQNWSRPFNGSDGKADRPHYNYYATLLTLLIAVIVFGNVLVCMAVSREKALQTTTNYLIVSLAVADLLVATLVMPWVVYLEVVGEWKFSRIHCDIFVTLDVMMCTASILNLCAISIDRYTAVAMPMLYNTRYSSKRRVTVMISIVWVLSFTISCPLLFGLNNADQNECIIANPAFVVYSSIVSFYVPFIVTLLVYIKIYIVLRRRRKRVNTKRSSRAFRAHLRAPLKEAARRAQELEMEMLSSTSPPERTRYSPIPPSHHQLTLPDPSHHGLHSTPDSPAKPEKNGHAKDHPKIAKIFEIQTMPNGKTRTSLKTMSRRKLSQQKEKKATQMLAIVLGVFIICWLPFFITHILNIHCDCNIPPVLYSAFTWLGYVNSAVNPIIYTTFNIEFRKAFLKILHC", "experiment": "D2 receptor-binding affinity (reduction of ^3 H-spiperone binding)", "settings": "for Ki: ^3 H-spiperone displacement, Ki by Cheng and Prusoff transformation of IC50", "description": "as §1, §2, §3"}, "D4 receptor": {"target": "D4 receptor", "settings": "marketed products, background statement; cited from earlier work"}, "[1]": {"test_system": "D4 receptor relative to the D2 receptor", "settings": "marketed products, background statement; cited from earlier work"}},
  "data": [
    {"compound": "3-[4-(5-iodopyridin-2-yl)-piperazin-1-yl]methyl-1H-pyrrolo[2,3-b]pyridine [Example 2]", "values": [
      {"measurement": "Ki", "setting": "D4", "value": 0.91, "unit": "nM"},
      {"measurement": "Ki", "setting": "D2", "value": 621, "unit": "nM"}
    ]},
    {"compound": "3-[4-(pyridin-2-yl)-piperazin-1-yl]methyl-1H-pyrrolo[2,3-b]pyridine [Example 1]", "values": [
      {"measurement": "Ki", "setting": "D4", "value": 1, "unit": "nM"},
      {"measurement": "Ki", "setting": "D2", "value": 3660, "unit": "nM"}
    ]},
    {"compound": "Brc1ccc(N2CCN(Cc3c[nH]c4ncccc34)CC2)nc1", "note": "[Example 3, 3-[4-(5-bromopyridin-2-yl)-piperazin-1-yl]methyl-1H-pyrrolo[2,3-b]pyridine]", "values": [
      {"measurement": "inhibition at 0.001 µM", "setting": "D4; 1 nM, ^3 H-spiperone", "value": 26, "unit": "%"},
      {"measurement": "inhibition at 0.01 µM", "setting": "D4; 10 nM, ^3 H-spiperone", "value": 78, "unit": "%"},
      {"measurement": "inhibition at 0.1 µM", "setting": "D4; 100 nM, ^3 H-spiperone", "value": 98, "unit": "%"},
      {"measurement": "inhibition at 0.001 µM", "setting": "D2; 1 nM, ^3 H-spiperone", "value": "< 10", "unit": "%"},
      {"measurement": "inhibition at 0.01 µM", "setting": "D2; 10 nM, ^3 H-spiperone", "value": "< 10", "unit": "%"},
      {"measurement": "inhibition at 0.1 µM", "setting": "D2; 100 nM, ^3 H-spiperone", "value": "< 10", "unit": "%"}
    ]},
    {"compound": "CN1CCN(C2=Nc3cc(Cl)ccc3Oc3ccccc32)CC1", "note": "[isoloxapine]", "values": [
      {"measurement": "Ki", "setting": "D4 receptor", "value": "~20", "unit": "nM"},
      {"measurement": "preference for binding to the D4 receptor relative to the D2 receptor", "setting": "[1]", "value": "about 10 fold"}
    ]}
  ]
}
